From patent publication US20230072683A1, “PYRIDO-PYRIMIDIN DERIVATIVES AND PHARMACEUTICAL COMPOSITION, FOR USE IN PREVENTING OR TREATING PI3 KINASE RELATED DISEASES, COMPRISING SAME AS ACTIVE INGREDIENT” (BORYUNG PHARMACEUTICAL CO., LTD, priority 2019, published 2023)

Key:
DNA-PK(h) = DNA-PK(h) (Homo sapiens, UniProt P78527); assay: Evaluation of inhibitory activity against DNA-PK (HTRF kinase assay, GST-cMyc-p53 substrate); format: biochemical; details: for inhibition at 0.01 µM: compound concentration 0.01 μM, read-out: EXP_VALUE(% Inhibition) DNA-PK(h) 0.01 μM; for inhibition at 0.1 µM: compound concentration 0.1 μM, read-out: EXP_VALUE(% Inhibition) DNA-PK(h) 0.1 μM
How it was run: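 Human DNA-PK with 50 μM GST-cMyc-p53 substrate; reaction started with Mg/ATP, run 30 min at room temperature, stopped with EDTA. Phospho-Ser15 p53 detected by HTRF (Eu anti-phospho-Ser15, d2 anti-GST), signal = 10000×(Em 665/Em 620).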

[1] = target: PI3K-δ (PI3K(p1108/p857) (h)) (Homo sapiens, UniProt O00329); assay: Evaluation of inhibitory activity against PI3K-δ (HTRF kinase assay); format: biochemical; details: for inhibition at 0.01 µM: compound concentration 0.01 μM, read-out: EXP_VALUE(% Inhibition) PI3K-δ 0.01 μM; for inhibition at 0.1 µM: compound concentration 0.1 μM, read-out: EXP_VALUE(% Inhibition) PI3K-δ 0.1 μM
Chain of PI3K-δ (PI3K(p1108/p857) (h)) (O00329 whole entry, the tested form may be a part): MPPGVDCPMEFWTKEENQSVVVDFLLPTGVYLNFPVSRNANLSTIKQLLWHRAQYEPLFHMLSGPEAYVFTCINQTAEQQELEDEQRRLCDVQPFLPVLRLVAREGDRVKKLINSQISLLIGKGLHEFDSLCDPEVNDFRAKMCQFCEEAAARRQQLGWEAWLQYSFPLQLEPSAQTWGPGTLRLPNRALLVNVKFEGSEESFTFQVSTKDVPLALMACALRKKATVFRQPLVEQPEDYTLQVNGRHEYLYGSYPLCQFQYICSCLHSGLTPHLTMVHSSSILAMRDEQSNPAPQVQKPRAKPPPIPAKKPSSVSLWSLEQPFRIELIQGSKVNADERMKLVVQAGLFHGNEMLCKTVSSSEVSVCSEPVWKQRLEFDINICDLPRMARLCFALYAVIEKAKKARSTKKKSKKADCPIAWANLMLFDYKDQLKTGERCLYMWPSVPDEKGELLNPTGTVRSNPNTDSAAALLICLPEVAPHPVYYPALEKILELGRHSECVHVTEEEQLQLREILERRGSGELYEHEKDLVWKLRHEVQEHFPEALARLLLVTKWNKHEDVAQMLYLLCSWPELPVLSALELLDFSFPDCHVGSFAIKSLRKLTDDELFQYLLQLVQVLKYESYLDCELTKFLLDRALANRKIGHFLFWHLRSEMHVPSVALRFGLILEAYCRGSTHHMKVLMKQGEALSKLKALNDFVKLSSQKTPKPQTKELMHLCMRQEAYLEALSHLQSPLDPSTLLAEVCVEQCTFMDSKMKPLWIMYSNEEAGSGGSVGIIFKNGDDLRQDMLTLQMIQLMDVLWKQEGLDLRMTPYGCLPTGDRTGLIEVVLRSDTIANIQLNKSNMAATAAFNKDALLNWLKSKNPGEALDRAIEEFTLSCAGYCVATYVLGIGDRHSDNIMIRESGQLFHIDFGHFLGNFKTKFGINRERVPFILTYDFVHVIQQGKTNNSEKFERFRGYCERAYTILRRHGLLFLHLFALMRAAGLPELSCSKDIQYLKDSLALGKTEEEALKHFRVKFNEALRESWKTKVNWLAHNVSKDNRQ
Chain of PI3K-δ (PI3K(p1108/p857) (h)) (P27986 whole entry partner, the tested form may be a part): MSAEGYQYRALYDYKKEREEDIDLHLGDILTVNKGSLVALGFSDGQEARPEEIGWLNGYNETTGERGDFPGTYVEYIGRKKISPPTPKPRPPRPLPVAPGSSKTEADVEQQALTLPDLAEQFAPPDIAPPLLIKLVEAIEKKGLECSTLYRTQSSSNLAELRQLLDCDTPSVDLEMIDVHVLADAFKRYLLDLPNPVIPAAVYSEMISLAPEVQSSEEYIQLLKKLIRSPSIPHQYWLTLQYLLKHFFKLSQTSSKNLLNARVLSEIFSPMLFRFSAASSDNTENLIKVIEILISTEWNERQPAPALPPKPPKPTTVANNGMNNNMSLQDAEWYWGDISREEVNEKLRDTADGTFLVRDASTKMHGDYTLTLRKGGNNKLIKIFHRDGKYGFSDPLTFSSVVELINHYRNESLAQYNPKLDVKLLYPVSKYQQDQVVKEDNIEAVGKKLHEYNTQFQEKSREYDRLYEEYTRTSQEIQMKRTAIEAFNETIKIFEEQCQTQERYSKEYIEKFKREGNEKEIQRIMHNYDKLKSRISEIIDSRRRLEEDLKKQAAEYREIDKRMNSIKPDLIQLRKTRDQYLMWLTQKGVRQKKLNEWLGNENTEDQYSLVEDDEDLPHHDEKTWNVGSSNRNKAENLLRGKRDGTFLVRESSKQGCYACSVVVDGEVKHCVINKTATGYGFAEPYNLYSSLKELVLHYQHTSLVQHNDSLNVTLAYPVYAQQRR
How it was run: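 HTRF read-out (665/620 nm ratio ×10000) used Eu-labelled anti-GST, GST-tagged GRP1 PH domain and streptavidin-allophycocyanin after EDTA/PIP3 stop.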

Compound | inhibition at 0.01 µM (DNA-PK(h)) [%] | inhibition at 0.1 µM (DNA-PK(h)) [%] | inhibition at 0.01 µM [1] [%] | inhibition at 0.1 µM [1] [%]
Cc1cncc(-c2cccc3c(Cl)c([C@H](C)Nc4ncnc5[nH]ccc(=O)c45)n(-c4ccccc4)c(=O)c23)c1 [Example 119, (S)-4-((1-(4-chloro-8-(5-methylpyridin-3-yl)-1-oxo-2-phenyl-1,2-dihydroisoquinolin-3-yl)ethyl)amino)pyrido[2,3-d]pyrimidin-5(8H)-one] | 96 | 101 | 84 | 82
C[C@H](Nc1ncnc2[nH]ccc(=O)c12)c1c(Cl)c2cccc(-c3ccc4c(c3)OCCN4)c2c(=O)n1-c1ccccc1 [Example 120, (S)-4-((1-(4-chloro-8-(3,4-dihydro-2H-benzo[b][1,4]oxazin-7-yl)-1-oxo-2-phenyl-1,2-dihydroisoquinolin-3-yl)ethyl)amino)pyrido[2,3-d]pyrimidin-5(8H)-one] | 72 | 98 | 65 | 95
C[C@H](Nc1ncnc2[nH]ccc(=O)c12)c1c(Cl)c2cccc(-c3ccc4ncccc4c3)c2c(=O)n1-c1ccccc1 [Example 121, (S)-4-((1-(4-chloro-1-oxo-2-phenyl-8-(quinolin-6-yl)-1,2-dihydroisoquinolin-3-yl)ethyl)amino)pyrido[2,3-d]pyrimidin-5(8H)-one] | 76 | 98 | 84 | 95
C[C@H](Nc1ncnc2[nH]ccc(=O)c12)c1c(Cl)c2cccc(-c3ccccc3F)c2c(=O)n1-c1ccccc1 [Example 122, (S)-4-((1-(4-chloro-8-(2-fluorophenyl)-1-oxo-2-phenyl-1,2-dihydroisoquinolin-3-yl)ethyl)amino)pyrido[2,3-d]pyrimidin-5(8H)-one] | 61 | 92 | 68 | 88
C[C@H](Nc1ncnc2[nH]ccc(=O)c12)c1c(Cl)c2cccc(-c3cccc(F)c3)c2c(=O)n1-c1ccccc1 [Example 123, (S)-4-((1-(4-chloro-8-(3-fluorophenyl)-1-oxo-2-phenyl-1,2-dihydroisoquinolin-3-yl)ethyl)amino)pyrido[2,3-d]pyrimidin-5(8H)-one] | 58 | 93 | 66 | 94
C[C@H](Nc1ncnc2[nH]ccc(=O)c12)c1c(Cl)c2cccc(-c3cc(F)cc(F)c3)c2c(=O)n1-c1ccccc1 [Example 124, (S)-4-((1-(4-chloro-8-(3,5-difluorophenyl)-1-oxo-2-phenyl-1,2-dihydroisoquinolin-3-yl)ethyl)amino)pyrido[2,3-d]pyrimidin-5(8H)-one] | 44 | 86 | 83 | 99
C[C@H](Nc1ncnc2[nH]ccc(=O)c12)c1c(Cl)c2cccc(-c3ccc4[nH]cnc4c3)c2c(=O)n1-c1ccccc1 [Example 125, (S)-4-((1-(8-(1H-benzo[d]imidazol-5-yl)-4-chloro-1-oxo-2-phenyl-1,2-dihydroisoquinolin-3-yl)ethyl)amino)pyrido[2,3-d]pyrimidin-5(8H)-one] | 79 | 97 | 68 | 95
Cc1cc(-c2cccc3c(Cl)c([C@H](C)Nc4ncnc5[nH]ccc(=O)c45)n(-c4ccccc4)c(=O)c23)cc(C)c1O [Example 126, (S)-4-((1-(4-chloro-8-(4-hydroxy-3,5-dimethylphenyl)-1-oxo-2-phenyl-1,2-dihydroisoquinolin-3-yl)ethyl)amino)pyrido[2,3-d]pyrimidin-5(8H)-one] | 70 | 96 | 74 | 94
Cc1ccc(F)cc1-c1cccc2c(Cl)c([C@H](C)Nc3ncnc4[nH]ccc(=O)c34)n(-c3ccccc3)c(=O)c12 [Example 127, (S)-4-((1-(4-chloro-8-(5-fluoro-2-methylphenyl)-1-oxo-2-phenyl-1,2-dihydroisoquinolin-3-yl)ethyl)amino)pyrido[2,3-d]pyrimidin-5(8H)-one] | 38 | 81 | 89 | 92
Cc1cc(-c2cccc3c(Cl)c([C@H](C)Nc4ncnc5[nH]ccc(=O)c45)n(-c4ccccc4)c(=O)c23)ccc1F [Example 128, (S)-4-((1-(4-chloro-8-(4-fluoro-3-methylphenyl)-1-oxo-2-phenyl-1,2-dihydroisoquinolin-3-yl)ethyl)amino)pyrido[2,3-d]pyrimidin-5(8H)-one] | 59 | 97 | 101 | 105
C[C@H](Nc1ncnc2[nH]ccc(=O)c12)c1c(Cl)c2cccc(-c3cccc(F)c3F)c2c(=O)n1-c1ccccc1 [Example 129, (S)-4-((1-(4-chloro-8-(2,3-difluorophenyl)-1-oxo-2-phenyl-1,2-dihydroisoquinolin-3-yl)ethyl)amino)pyrido[2,3-d]pyrimidin-5(8H)-one] | 56 | 91 | 75 | 67
C[C@H](Nc1ncnc2[nH]ccc(=O)c12)c1c(Cl)c2cccc(-c3ccc(C4CCN(C)CC4)cc3)c2c(=O)n1-c1ccccc1 [Example 130, (S)-4-((1-(4-chloro-8-(4-(1-methylpiperidin-4-yl)phenyl)-1-oxo-2-phenyl-1,2-dihydroisoquinolin-3-yl)ethyl)amino)pyrido[2,3-d]pyrimidin-5(8H)-one] | 98 | 102 | 85 | 89
Cc1cc(F)ccc1-c1cccc2c(Cl)c([C@H](C)Nc3ncnc4[nH]ccc(=O)c34)n(-c3ccccc3)c(=O)c12 [Example 131, (S)-4-((1-(4-chloro-8-(4-fluoro-2-methylphenyl)-1-oxo-2-phenyl-1,2-dihydroisoquinolin-3-yl)ethyl)amino)pyrido[2,3-d]pyrimidin-5(8H)-one] | 54 | 92 | 81 | 91
C[C@H](Nc1ncnc2[nH]ccc(=O)c12)c1c(Cl)c2cccc(-c3cnc4c(c3)OCCO4)c2c(=O)n1-c1ccccc1 [Example 132, (S)-4-((1-(4-chloro-8-(2,3-dihydro-[1,4]dioxino[2,3-b]pyridin-7-yl)-1-oxo-2-phenyl-1,2-dihydroisoquinolin-3-yl)ethyl)amino)pyrido[2,3-d]pyrimidin-5(8H)-one] | 89 | 102 | 91 | 94
COc1ccc(-c2cccc3c(Cl)c([C@H](C)Nc4ncnc5[nH]ccc(=O)c45)n(-c4ccccc4)c(=O)c23)cn1 [Example 133, (S)-4-((1-(4-chloro-8-(6-methoxypyridin-3-yl)-1-oxo-2-phenyl-1,2-dihydroisoquinolin-3-yl)ethyl)amino)pyrido[2,3-d]pyrimidin-5(8H)-one] | 79 | 99 | 78 | 88
C[C@H](Nc1ncnc2[nH]ccc(=O)c12)c1c(Cl)c2cccc(-c3ccncc3)c2c(=O)n1-c1ccccc1 [Example 134, (S)-4-((1-(4-chloro-1-oxo-2-phenyl-8-(pyridin-4-yl)-1,2-dihydroisoquinolin-3-yl)ethyl)amino)pyrido[2,3-d]pyrimidin-5(8H)-one] | 83 | 97 | 85 | 92
Cc1nc2cc(-c3cccc4c(Cl)c([C@H](C)Nc5ncnc6[nH]ccc(=O)c56)n(-c5ccccc5)c(=O)c34)ccc2[nH]1 [Example 135, (S)-4-((1-(4-chloro-8-(2-methyl-1H-benzo[d]imidazol-5-yl)-1-oxo-2-phenyl-1,2-dihydroisoquinolin-3-yl)ethyl)amino)pyrido[2,3-d]pyrimidin-5(8H)-one] | 85 | 100 | 78 | 97
Cc1ncc(-c2cccc3c(Cl)c([C@H](C)Nc4ncnc5[nH]ccc(=O)c45)n(-c4ccccc4)c(=O)c23)cn1 [Example 136, (S)-4-((1-(4-chloro-8-(2-methylpyrimidin-5-yl)-1-oxo-2-phenyl-1,2-dihydroisoquinolin-3-yl)ethyl)amino)pyrido[2,3-d]pyrimidin-5(8H)-one] | 75 | 97 | 83 | 93
C[C@H](Nc1ncnc2[nH]ccc(=O)c12)c1c(Cl)c2cccc(-c3ccc4nccnc4c3)c2c(=O)n1-c1ccccc1 [Example 137, (S)-4-((1-(4-chloro-1-oxo-2-phenyl-8-(quinoxalin-6-yl)-1,2-dihydroisoquinolin-3-yl)ethyl)amino)pyrido[2,3-d]pyrimidin-5(8H)-one] | 87 | 100 | 84 | 92
C[C@H](Nc1ncnc2[nH]ccc(=O)c12)c1c(Cl)c2cccc(-c3ccc(N4CCN(C(=O)OC(C)(C)C)CC4)cc3)c2c(=O)n1-c1ccccc1 [Example 138, tert-butyl(S)-4-(4-(4-chloro-1-oxo-3-(1-((5-oxo-5,8-dihydropyrido[2,3-d]pyrimidin-4-yl)amino)ethyl)-2-phenyl-1,2-dihydroisoquinolin-8-yl)phenyl)piperazin-1-carboxylate] | 32 | 75 | 33 | 81
